Source: patent US20120136005A1, “E[…] THE TREATMENT OF ANXIETY” (MERZ PHARMA GmbH & CO. KGaA, priority 2009, published 2012)

How the values were obtained:
[1] = molecular target: T1, 5-HT2a recombinant receptor (Homo sapiens, UniProt P28223); assay: Aequorin cell line functional assay; assay type: cell-based; conditions: human recombinant cell lines; FIG. 1
T1 construct: expressed in transfected cells
Protocol: (§1) Aequorin cell lines expressing the 5-HT2a, 5-HT2b and 5-HT2c non-edited (ne) recombinant receptors were used to evaluate the functional activity of eltoprazine. Aequorin cells grown 18 h prior to the test in media without antibiotics were detached by gentle flushing with PBS-EDTA (5 mM EDTA), recovered by centrifugation and resuspended in “assay buffer” (DMEM/HAM's F12 with HEPES+0.1% BSA protease free). Cells were incubated at room temperature for at least 4 h with Coelenterazine h (Molecular Probes). The reference agonist used were 5-HT and α-methyl-5-HT. For agonist testing, 50 μl of cell suspension were injected on 50 μl of test compound or reference agonist plated in a 96-well plate. The resulting emission of light was recorded using the Hamamatsu Functional Drug Screening System 6000 (FDSS 6000).

[2] = molecular target: T2, 5-HT2c non-edited (ne) recombinant receptor (Homo sapiens, UniProt P28335); assay: Aequorin cell line functional assay; assay type: cell-based; conditions: human recombinant cell lines; FIG. 1
T2 construct: expressed in transfected cells
T2 sequence (P28335 33-458): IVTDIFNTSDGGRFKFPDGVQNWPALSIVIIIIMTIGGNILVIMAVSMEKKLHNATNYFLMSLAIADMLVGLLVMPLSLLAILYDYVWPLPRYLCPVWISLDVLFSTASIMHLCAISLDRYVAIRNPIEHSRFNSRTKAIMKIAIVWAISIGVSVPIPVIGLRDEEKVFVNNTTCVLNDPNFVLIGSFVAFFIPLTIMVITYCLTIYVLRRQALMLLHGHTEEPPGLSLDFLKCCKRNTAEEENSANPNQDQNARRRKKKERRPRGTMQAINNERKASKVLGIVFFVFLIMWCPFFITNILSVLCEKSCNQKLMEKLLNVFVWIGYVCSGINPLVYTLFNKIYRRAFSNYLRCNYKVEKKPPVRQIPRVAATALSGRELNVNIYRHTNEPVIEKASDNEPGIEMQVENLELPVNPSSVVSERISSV
Protocol: as §1

[3] = system: unilaterally 6-OHDA-lesioned rats; assay: Turning behaviour induced by high dose of L-DOPA in 6-OHDA-lesioned rats; assay type: in vivo, Sprague Dawley rats; conditions: 0.3, 1.25 and 5 mg/kg, 30 min before the test; FIG. 3
Protocol: Male Sprague Dawley rats (Elevage Janvier, Le Genest Saint Isle, France) weighing between 220 and 250 g at the beginning of the study are used in these experiments. They are housed under a 12 h light/dark cycle with free access to standard pelleted food and tap water. Animal treatment and experimental procedures are approved by local ethical committees (Regierungspräsidium Darmstadt; Germany).
Dopamine-denervating lesions are performed on rats anaesthetized with a 5:1 mixture of ketamine and xylazine (1 ml/kg, i.p.). […] The animals' turning behaviour is recorded in an automated rotometer (TSE Rotameter System, TSE-Systems GmbH, Bad Homburg, Germany) over a 90 min period after the intraperitoneal (i.p.) injection of 2.5 mg/kg dexamphetamine sulphate dissolved in saline. […]
In order to evaluate the effect of eltoprazine on parkinsonian symptoms and its interaction with L-DOPA, rotational behaviour is evaluated. The numbers of ipsilateral and contralateral turns are recorded in an automated rotometer (TSE Rotameter System, TSE-Systems GmbH, Bad Homburg, Germany) over a period of 180 min. […]

T1 sequence (P28223 whole entry): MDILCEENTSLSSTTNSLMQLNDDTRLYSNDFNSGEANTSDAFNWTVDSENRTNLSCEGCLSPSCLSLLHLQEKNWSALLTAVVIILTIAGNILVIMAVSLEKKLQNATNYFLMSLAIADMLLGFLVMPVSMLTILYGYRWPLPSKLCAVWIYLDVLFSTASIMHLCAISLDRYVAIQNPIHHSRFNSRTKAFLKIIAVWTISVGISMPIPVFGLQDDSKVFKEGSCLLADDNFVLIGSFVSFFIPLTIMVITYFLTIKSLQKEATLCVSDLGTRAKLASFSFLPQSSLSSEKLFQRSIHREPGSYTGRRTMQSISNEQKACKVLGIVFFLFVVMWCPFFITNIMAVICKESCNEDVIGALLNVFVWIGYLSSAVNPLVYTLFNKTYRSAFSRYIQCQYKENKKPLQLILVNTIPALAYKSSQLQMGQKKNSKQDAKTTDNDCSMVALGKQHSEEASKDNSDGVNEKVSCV

c1cc2c(c(N3CCNCC3)c1)OCCO2 [eltoprazine, 1-(2,3-dihydro-1,4-benzodioxin-5-yl)piperazine]
functional activity at 5-HT2a receptor [1]: full agonist
functional activity at 5-HT2c receptor [2]: full agonist
interference with the antiparkinsonian effect of L-DOPA (turning behaviour) [3]: does not interfere
